The record followed here is patent US12281149B2, “Modulators of G-protein coupled receptors” (priority 2021, dated 2025).

Molecules are shown by their SMILES. pEC50: −log10 of the molar value. Like-named read-outs stand apart in the source and are kept apart here. *1 amine or outer side, *2 acyl side, *3 side chain or, on linkers, in order; H or OH if unused. Where a SMILES comes first, the peptide text is derived from it. Side-chain parts run from the residue outwards. [ ]: non-standard residue; d: D form. The star is where a group is joined. Isobutyryl(2-(3-CN-5-F-Ph)) = CC(C)(C(=O)*)c1cc(F)cc(C#N)c1; C20 diacid = O=C(O)CCCCCCCCCCCCCCCCCCC(=O)*; Phenylacetyl(3-Cl) = O=C(Cc1cccc(Cl)c1)*; β2hAla(2S) = C[C@@H](CN[*:1])C(=O)[*:2]; γGlu = O=C(O)[C@H](CCC(=O)[*:2])N[*:1]; β2hAla(R) = C[C@H](CN[*:1])C(=O)[*:2]; d(β3hA) = C[C@@H](N)CC(=O)O; β3hA = C[C@H](N)CC(=O)O; AEEA = NCCOCCOCC(=O)O; Aib = CC(C)(N)C(=O)O; βAla = NCCC(=O)O

What all share (assay type): cell-based
Assay [1] addresses T1, GIP receptor (Homo sapiens, UniProt P48546).
T1 sequence (P48546 22-466): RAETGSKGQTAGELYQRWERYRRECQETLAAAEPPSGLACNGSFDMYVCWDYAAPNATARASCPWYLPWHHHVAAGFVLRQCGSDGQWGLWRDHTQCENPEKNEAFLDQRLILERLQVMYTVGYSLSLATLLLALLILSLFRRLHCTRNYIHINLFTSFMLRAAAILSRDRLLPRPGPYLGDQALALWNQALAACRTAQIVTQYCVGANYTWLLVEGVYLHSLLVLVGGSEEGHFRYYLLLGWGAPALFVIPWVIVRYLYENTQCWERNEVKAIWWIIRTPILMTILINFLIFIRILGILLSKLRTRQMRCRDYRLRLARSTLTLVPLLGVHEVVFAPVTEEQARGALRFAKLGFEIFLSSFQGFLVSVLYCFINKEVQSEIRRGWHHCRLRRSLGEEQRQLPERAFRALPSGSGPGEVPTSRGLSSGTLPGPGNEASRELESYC
Kind of assay: PathHunter β-arrestin assay, GIP receptor. The arrangement: host or cells: PathHunter CHO-K1 GIPR β-Arrestin Cell Line.

Assay [2] addresses T2, GLP-1 receptor (Homo sapiens, UniProt P43220). The assay can be described thus: PathHunter β-arrestin assay, GLP-1 receptor. The arrangement: host or cells: PathHunter CHO-K1 GLP1R β-Arrestin Cell Line.
For assay [3], the target named is T1, GIP receptor. The assay can be described thus: HitHunter cAMP assay, GIP receptor. The note with it: for Emax: read-out: Emax GIP-1R.
Assay [4] has as its target T2, GLP-1 receptor. The assay can be described thus: HitHunter cAMP assay, GLP-1 receptor. Particulars: for Emax: read-out: Emax GLP-1R. Background: cAMP levels reflect the balance of adenylyl cyclase and phosphodiesterase activity.
The mark [5] stands for this setting: β-arrestin-2 recruitment, PathHunter CHO-K1 GIPR β-Arrestin Cell Line, 90 min at 37° C., normalized to GIP, read-out: GIPR β Arrestin EC50.
[6] abbreviates: β-arrestin-2 recruitment, PathHunter CHO-K1 GLP1R β-Arrestin Cell Line, 90 min at 37° C., normalized to GLP-1, read-out: GLP-1R β Arrestin EC50.
Setting [7] is: CHO cells stably expressing GIP receptor, cAMP accumulation, 30 min, read-out: EC50 GIP-1R.
Setting [8] is: CHO cells, cAMP, normalized to maximum signal from GIP (high) and DMSO (low).
Where [9] appears, read: CHO cells stably expressing human GLP-1 receptor, cAMP accumulation, 30 min, read-out: EC50 GLP-1R.
Where [10] appears, read: CHO cells, cAMP, normalized to maximum signal from GLP-1 (high) and DMSO (low).

T2 sequence (P43220 24-463): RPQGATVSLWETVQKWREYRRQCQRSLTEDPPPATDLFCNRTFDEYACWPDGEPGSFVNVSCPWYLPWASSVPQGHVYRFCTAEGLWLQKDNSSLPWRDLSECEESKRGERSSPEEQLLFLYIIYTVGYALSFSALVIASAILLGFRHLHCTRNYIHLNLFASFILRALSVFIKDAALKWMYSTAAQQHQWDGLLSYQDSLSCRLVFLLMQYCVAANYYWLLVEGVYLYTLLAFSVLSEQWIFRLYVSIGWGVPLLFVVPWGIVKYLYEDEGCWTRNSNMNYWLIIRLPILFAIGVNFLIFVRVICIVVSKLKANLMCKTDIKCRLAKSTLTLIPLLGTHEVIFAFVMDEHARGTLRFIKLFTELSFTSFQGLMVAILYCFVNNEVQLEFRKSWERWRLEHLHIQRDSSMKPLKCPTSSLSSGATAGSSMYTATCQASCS

In the case of `CC[C@H](C)[C@H](NC(=O)[C@H](CC(C)C)NC(=O)[C@H](Cc1c[nH]c2ccccc12)NC(=O)[C@H](CCC(N)=O)NC(=O)[C@@H](NC(=O)[C@H](Cc1ccccc1)NC(=O)[C@H](C)NC(=O)[C@H](CCCCNC(=O)COCCOCCNC(=O)COCCOCCNC(=O)CC[C@H](NC(=O)CCCCCCCCCCCCCCCCCCC(=O)O)C(=O)O)NC(=O)[C@H](CCC(N)=O)NC(=O)[C@H](C)NC(=O)[C@@H](NC(=O)[C@H](CCCCN)NC(=O)[C@H](CC(=O)O)NC(=O)[C@H](CC(C)C)NC(=O)C(C)(C)NC(=O)[C@@H](NC(=O)[C@H](CO)NC(=O)[C@H](Cc1ccc(O)cc1)NC(=O)[C@H](CC(=O)O)NC(=O)[C@H](CO)NC(=O)[C@@H](NC(=O)[C@H](Cc1ccccc1)NC(=O)[C@@H](NC(=O)CNC(=O)[C@H](CCC(=O)O)NC(=O)C[C@H](C)NC(=O)C(C)(C)c1cc(F)cc(C#N)c1)[C@@H](C)O)[C@@H](C)O)[C@@H](C)CC)[C@@H](C)CC)C(C)C)C(=O)N[C@@H](C)C(=O)NCC(=O)NCC(=O)N1CCC[C@H]1C(=O)N[C@@H](CO)C(=O)N[C@@H](CO)C(=O)NCC(=O)N[C@@H](C)C(=O)N1CCC[C@H]1C(=O)N1CCC[C@H]1C(=O)N1CCC[C@H]1C(=O)N[C@@H](CO)C(N)=O` [Compound 222] ({Isobutyryl(2-(3-CN-5-F-Ph))}-[β3hA]EGTFTSDYSI[Aib]LDKIAQK([AEEA-AEEA-γGlu-C20 diacid])AFVQWLIAGGPSSGAPPPS-NH2), the pEC50 on GIP receptor [1] (setting [5]) is under 6.00; on GLP-1 receptor [2] (setting [6]), under 6.00; on GIP receptor [3] (setting [7]) it was 7.00 to 8.00; on GLP-1 receptor [4] (setting [9]), 9.00 to 10.00. Moreover, the Emax turned out to be 101% at GIP receptor [3] (setting [8]) and 108% at GLP-1 receptor [4] (setting [10]).
As to `CC[C@H](C)[C@H](NC(=O)[C@H](CC(C)C)NC(=O)[C@H](Cc1c[nH]c2ccccc12)NC(=O)[C@H](CCC(N)=O)NC(=O)[C@@H](NC(=O)[C@H](Cc1ccccc1)NC(=O)[C@H](C)NC(=O)[C@H](CCCCNC(=O)COCCOCCNC(=O)COCCOCCNC(=O)CC[C@H](NC(=O)CCCCCCCCCCCCCCCCCCC(=O)O)C(=O)O)NC(=O)[C@H](CCC(N)=O)NC(=O)[C@H](C)NC(=O)[C@@H](NC(=O)[C@H](CCCCN)NC(=O)[C@H](CC(=O)O)NC(=O)[C@H](CC(C)C)NC(=O)C(C)(C)NC(=O)[C@@H](NC(=O)[C@H](CO)NC(=O)[C@H](Cc1ccc(O)cc1)NC(=O)[C@H](CC(=O)O)NC(=O)[C@H](CO)NC(=O)[C@@H](NC(=O)[C@H](Cc1ccccc1)NC(=O)[C@@H](NC(=O)CNC(=O)[C@H](CCC(=O)O)NC(=O)C[C@@H](C)NC(=O)C(C)(C)c1cc(F)cc(C#N)c1)[C@@H](C)O)[C@@H](C)O)[C@@H](C)CC)[C@@H](C)CC)C(C)C)C(=O)N[C@@H](C)C(=O)NCC(=O)NCC(=O)N1CCC[C@H]1C(=O)N[C@@H](CO)C(=O)N[C@@H](CO)C(=O)NCC(=O)N[C@@H](C)C(=O)N1CCC[C@H]1C(=O)N1CCC[C@H]1C(=O)N1CCC[C@H]1C(=O)N[C@@H](CO)C(N)=O` [Compound 223] ({Isobutyryl(2-(3-CN-5-F-Ph))}-[d(β3hA)]EGTFTSDYSI[Aib]LDKIAQK([AEEA-AEEA-γGlu-C20 diacid])AFVQWLIAGGPSSGAPPPS-NH2), the pEC50 is under 6.00 at GIP receptor [1] (setting [5]), under 6.00 at GLP-1 receptor [2] (setting [6]), 6.00 to 7.00 at GIP receptor [3] (setting [7]) and 7.00 to 8.00 at GLP-1 receptor [4] (setting [9]). In addition, the Emax at GIP receptor [3] (setting [8]) was 42%; on GLP-1 receptor [4] (setting [10]) it was 96%.
In the case of `CC[C@H](C)[C@H](NC(=O)[C@H](CC(C)C)NC(=O)[C@H](Cc1c[nH]c2ccccc12)NC(=O)[C@H](CCC(N)=O)NC(=O)[C@@H](NC(=O)[C@H](Cc1ccccc1)NC(=O)[C@H](C)NC(=O)[C@H](CCCCNC(=O)COCCOCCNC(=O)COCCOCCNC(=O)CC[C@H](NC(=O)CCCCCCCCCCCCCCCCCCC(=O)O)C(=O)O)NC(=O)[C@H](CCC(N)=O)NC(=O)[C@H](C)NC(=O)[C@@H](NC(=O)[C@H](CCCCN)NC(=O)[C@H](CC(=O)O)NC(=O)[C@H](CC(C)C)NC(=O)C(C)(C)NC(=O)[C@@H](NC(=O)[C@H](CO)NC(=O)[C@H](Cc1ccc(O)cc1)NC(=O)[C@H](CC(=O)O)NC(=O)[C@H](CO)NC(=O)[C@@H](NC(=O)[C@H](Cc1ccccc1)NC(=O)[C@@H](NC(=O)CNC(=O)[C@H](CCC(=O)O)NC(=O)[C@@H](C)CNC(=O)C(C)(C)c1cc(F)cc(C#N)c1)[C@@H](C)O)[C@@H](C)O)[C@@H](C)CC)[C@@H](C)CC)C(C)C)C(=O)N[C@@H](C)C(=O)NCC(=O)NCC(=O)N1CCC[C@H]1C(=O)N[C@@H](CO)C(=O)N[C@@H](CO)C(=O)NCC(=O)N[C@@H](C)C(=O)N1CCC[C@H]1C(=O)N1CCC[C@H]1C(=O)N1CCC[C@H]1C(=O)N[C@@H](CO)C(N)=O` [Compound 224] ({Isobutyryl(2-(3-CN-5-F-Ph))}-[β2hAla(2S)]EGTFTSDYSI[Aib]LDKIAQK([AEEA-AEEA-γGlu-C20 diacid])AFVQWLIAGGPSSGAPPPS-NH2), the pEC50 on GIP receptor [1] (setting [5]) was over 6.00; on GLP-1 receptor [2] (setting [6]), under 6.00; at GIP receptor [3] (setting [7]) it was 8.00 to 9.00; at GLP-1 receptor [4] (setting [9]), 9.00 to 10.00. Further, the Emax is 103% at GIP receptor [3] (setting [8]) and 102% at GLP-1 receptor [4] (setting [10]).
Consider `CC[C@H](C)[C@H](NC(=O)[C@H](CC(C)C)NC(=O)[C@H](Cc1c[nH]c2ccccc12)NC(=O)[C@H](CCC(N)=O)NC(=O)[C@@H](NC(=O)[C@H](Cc1ccccc1)NC(=O)[C@H](C)NC(=O)[C@H](CCCCNC(=O)COCCOCCNC(=O)COCCOCCNC(=O)CC[C@H](NC(=O)CCCCCCCCCCCCCCCCCCC(=O)O)C(=O)O)NC(=O)[C@H](CCC(N)=O)NC(=O)[C@H](C)NC(=O)[C@@H](NC(=O)[C@H](CCCCN)NC(=O)[C@H](CC(=O)O)NC(=O)[C@H](CC(C)C)NC(=O)C(C)(C)NC(=O)[C@@H](NC(=O)[C@H](CO)NC(=O)[C@H](Cc1ccc(O)cc1)NC(=O)[C@H](CC(=O)O)NC(=O)[C@H](CO)NC(=O)[C@@H](NC(=O)[C@H](Cc1ccccc1)NC(=O)[C@@H](NC(=O)CNC(=O)[C@H](CCC(=O)O)NC(=O)[C@H](C)CNC(=O)C(C)(C)c1cc(F)cc(C#N)c1)[C@@H](C)O)[C@@H](C)O)[C@@H](C)CC)[C@@H](C)CC)C(C)C)C(=O)N[C@@H](C)C(=O)NCC(=O)NCC(=O)N1CCC[C@H]1C(=O)N[C@@H](CO)C(=O)N[C@@H](CO)C(=O)NCC(=O)N[C@@H](C)C(=O)N1CCC[C@H]1C(=O)N1CCC[C@H]1C(=O)N1CCC[C@H]1C(=O)N[C@@H](CO)C(N)=O` [Compound 225] ({Isobutyryl(2-(3-CN-5-F-Ph))}-[β2hAla(R)]EGTFTSDYSI[Aib]LDKIAQK([AEEA-AEEA-γGlu-C20 diacid])AFVQWLIAGGPSSGAPPPS-NH2), for which the pEC50 on GIP receptor [1] (setting [5]) is under 6.00; on GLP-1 receptor [2] (setting [6]) it was under 6.00; at GIP receptor [3] (setting [7]), 7.00 to 8.00; on GLP-1 receptor [4] (setting [9]) it was 9.00 to 10.00. Also, the Emax on GIP receptor [3] (setting [8]) was found to be 98%; at GLP-1 receptor [4] (setting [10]), 102%.
Turning to `CC[C@H](C)[C@H](NC(=O)[C@H](CC(C)C)NC(=O)[C@H](Cc1c[nH]c2ccccc12)NC(=O)[C@H](CCC(N)=O)NC(=O)[C@@H](NC(=O)[C@H](Cc1ccccc1)NC(=O)[C@H](C)NC(=O)[C@H](CCCCNC(=O)COCCOCCNC(=O)COCCOCCNC(=O)CC[C@H](NC(=O)CCCCCCCCCCCCCCCCCCC(=O)O)C(=O)O)NC(=O)[C@H](CCC(N)=O)NC(=O)[C@H](C)NC(=O)[C@@H](NC(=O)[C@H](CCCCN)NC(=O)[C@H](CC(=O)O)NC(=O)[C@H](CC(C)C)NC(=O)C(C)(C)NC(=O)[C@@H](NC(=O)[C@H](CO)NC(=O)[C@H](Cc1ccc(O)cc1)NC(=O)[C@H](CC(=O)O)NC(=O)[C@H](CO)NC(=O)[C@@H](NC(=O)[C@H](Cc1ccccc1)NC(=O)[C@@H](NC(=O)CNC(=O)[C@H](CCC(=O)O)NC(=O)CCNC(=O)CNC(=O)Cc1cccc(Cl)c1)[C@@H](C)O)[C@@H](C)O)[C@@H](C)CC)[C@@H](C)CC)C(C)C)C(=O)N[C@@H](C)C(=O)NCC(=O)NCC(=O)N1CCC[C@H]1C(=O)N[C@@H](CO)C(=O)N[C@@H](CO)C(=O)NCC(=O)N[C@@H](C)C(=O)N1CCC[C@H]1C(=O)N1CCC[C@H]1C(=O)N1CCC[C@H]1C(=O)N[C@@H](CO)C(N)=O` [Compound 230] ({Phenylacetyl(3-Cl)}-G[βAla]EGTFTSDYSI[Aib]LDKIAQK([AEEA-AEEA-γGlu-C20 diacid])AFVQWLIAGGPSSGAPPPS-NH2), the pEC50 on GIP receptor [1] is under 6.00; on GLP-1 receptor [2], under 6.00; on GIP receptor [3] it was 7.00 to 8.00; on GLP-1 receptor [4], 8.00 to 9.00. Further, the Emax at GIP receptor [3] (CHO) was determined as 96%; at GLP-1 receptor [4] (CHO), 99%.

By pEC50 is commonly meant the EC50 on a negative log10 scale, so that one unit is a factor of ten. For orientation: Emax means the maximal effect, on the per cent scale that the assay sets.
